Data from PMC5546478 (Oncotarget, 2017).
“Also recorded” adds a separate entry of the source. Counter-ions that a name gives are not always drawn. Like-named read-outs stand apart in the source and are kept apart here. Values belong to the molecule of their own block, whether it stands above or below them.

How the values were obtained:
[1] = tested on: mutant IDH1; settings: cited from earlier work
[2] = target: T1, WT IDH1 (Homo sapiens, UniProt O75874); test: In vitro enzyme inhibition assay, WT IDH1 (NADPH production); type: biochemical; settings: for IC50 / IC50 for enzyme activities, WT: n.p = no clear inhibitory detected; for IC50: read-out: IC50 for enzyme activities, WT
T1 construct: made in house
Procedure: For inhibition assay, firstly, triplicate samples of compounds were incubated with the protein for 5 min.

[3] = 50 and 100 mg/kg per day via gavage
[4] = tested on: H3K9me3 in HT1080 tumor tissue; test: Immunohistochemistry for H3K9me3 in xenograft tumor tissues; type: in vivo, CB-17/Icr-scid mice; settings: clomifene treated groups (50, 100 mg/kg) vs vehicle
[5] = tested on: H3K9me3 in HT1080 cells; test: Immunocytochemical staining of H3K9me3; type: cell-based, human
[6] = tested on: HT1080 xenograft; test: Antitumor efficacy in HT1080 xenograft mouse model; type: in vivo, CB-17/Icr-scid mice; settings: for Tumor weight: after 2 weeks' treatment, control 2.32 ± 0.93 g; for Tumor volume: model 1879.61±244.35
Excerpt: In the xenograft model, HT1080 cells were inoculated subcutaneously into the right flank of male CB-17/Icr-scid mice.

[7] = tested on: H3K9me3 in HT1080 cells; test: Histone methylation H3K9me3 by western blot; type: cell-based, human; settings: 48 hours
[8] = tested on: mutant IDH1 (D-2HG production); test: D-2HG concentrations in tumors and serum of HT1080 xenograft mice; type: in vivo, CB-17/Icr-scid mice; settings: for percentage inhibition of D-2HG production in tumor tissue: normalized to control group; for R-2HG level in serum: model 5.97 ±2.58; for R-2HG level in tumor tissue: model 364.01 ±118.43
[9] = tested on: HT1080 cells; test: Flow cytometric analysis for apoptosis (Annexin V/PI); type: cell-based, human; settings: control 2%
Procedure: Then the cells were harvested, washed twice with ice-cold PBS, and mixed in 100 μL of 1 × binding buffer (10 mM HEPES/NaOH, pH 7.4, 140 mM NaCl, 2.5 mM CaCl2). After culturing for 15 min at room temperature in Annexin-V/PI (Nanjing KeyGen Biotech. Inc.) double staining liquid, the cells were examined by flow cytometry (BD Biosciences, FACSCalibur).

T1 sequence (O75874 whole entry): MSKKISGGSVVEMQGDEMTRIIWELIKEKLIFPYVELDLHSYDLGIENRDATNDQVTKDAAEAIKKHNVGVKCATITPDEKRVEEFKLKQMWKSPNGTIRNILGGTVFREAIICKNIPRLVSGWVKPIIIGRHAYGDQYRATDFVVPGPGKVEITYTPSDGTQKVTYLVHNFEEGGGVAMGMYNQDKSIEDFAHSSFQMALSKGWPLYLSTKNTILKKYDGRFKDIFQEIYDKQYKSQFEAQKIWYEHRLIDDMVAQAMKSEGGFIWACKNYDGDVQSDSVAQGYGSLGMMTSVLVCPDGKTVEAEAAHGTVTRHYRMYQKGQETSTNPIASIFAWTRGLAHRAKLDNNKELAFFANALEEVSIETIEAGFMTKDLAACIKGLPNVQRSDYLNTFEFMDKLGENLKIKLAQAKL

Compound: CC(C)(C)CC(C)(C)c1cc(Cn2ccnc2)c(O)c(Cn2ccnc2)c1 [2,6-bis (1H-imidazol-1-ylmethyl)-4-(2,4,4-trimethylpentan-2-yl) phenol]
manner of inhibition of mutant IDH1 ([1]; ligand of crystal structure 4UMX, binds allosteric site): non-competitive and allosteric inhibitor

Compound: CCN(CC)CCOc1ccc(C(=C(Cl)c2ccccc2)c2ccccc2)cc1 [Clomifene]
effect on mouse body weight [3]: no effect
effect on mouse body weight ([3]; listed as clomifene): no obvious side effects on animals’ growth
expressions of H3K9me3 in tumor tissues [4]: substantially reduced
mutant IDH1-mediated H3K9me3 [5]: substantially and dose-dependently decreased
Effect on WT IDH1 ([2]; at 200 μM): did not obviously alter
IC50 [2]: > 200 µM
percentage inhibition of tumor volume ([6]; 50 mg/kg per day via gavage): 51.71%
percentage inhibition of tumor weight ([6]; 50 mg/kg per day via gavage): 38.36%
Tumor weight ([6]; 50 mg/kg per day via gavage): 1.43 ± 0.42 g
percentage inhibition of tumor weight ([6]; 50 mg/kg per day via gavage, listed as clomifene): about 60%
Tumor volume ([6]; 50 mg/kg per day via gavage): 907.73±176.63 mm3
percentage inhibition of tumor volume ([6]; 100 mg/kg per day via gavage): 65.80%
percentage inhibition of tumor weight ([6]; 100 mg/kg per day via gavage): 59.48%
Tumor weight ([6]; 100 mg/kg per day via gavage): 0.94 ± 0.61 g
Tumor volume ([6]; 100 mg/kg per day via gavage): 642.91±127.02 mm3
tumor growth of HT1080-bearing mice ([6]; oral 100 mg/kg and 50 mg/kg per day): significantly suppressed
level of histone methylation (H3K9me3) [7]: significantly reduced; also recorded: markedly decrease
percentage inhibition of R-2HG in serum ([8]; 50 mg/kg): 51.59%
percentage inhibition of D-2HG production in tumor tissue ([8]; 50 mg/kg): 23.81%
R-2HG level in serum ([8]; 50 mg/kg): 2.89 ± 1.06 µM
R-2HG level in tumor tissue ([8]; 50 mg/kg): 277.34 ± 78.03 µg/g
percentage inhibition of D-2HG production in tumor tissue ([8]; 100 mg/kg): 57.38%
R-2HG level in serum ([8]; 100 mg/kg): 1.47 ± 1.38 µM
R-2HG level in tumor tissue ([8]; 100 mg/kg): 155.12 ± 74.34 µg/g
apoptotic death ([9]; 10 μM): 12.88%
apoptotic death ([9]; 20 μM): 23.61%

Compound: CN(C)[C@@H]1C(O)=C(C(N)=O)C(=O)[C@@]2(O)C(O)=C3C(=O)c4c(O)ccc(Cl)c4[C@@H](O)[C@H]3C[C@@H]12 [Demeclocycline]
IC50 for enzyme activities, WT [2]: n.p^e

Compound: C=C1c2cccc(O)c2C(=O)C2=C(O)[C@]3(O)C(=O)C(C(N)=O)=C(O)[C@@H](N(C)C)[C@@H]3[C@@H](O)[C@H]12 [Metacycline]
IC50 for enzyme activities, WT [2]: n.p

Compound: O=C(NC[C@H]1CN(c2ccc(N3CCOCC3=O)cc2)C(=O)O1)c1ccc(Cl)s1 [Rivaroxaban]
IC50 [2]: > 200 µM

Now from value to molecule, other results behind:

IC50 [2]: > 200 µM
Compound: Cc1ccccc1C(C(=O)NC1CCCCC1)N(C(=O)Cn1ccnc1C)c1cccc(F)c1 (centres unmarked) [AGI-5198]
kinetic mechanism with respect to NADPH ([1]; mutant IDH1): uncompetitive
kinetic mechanism with respect to α-KG ([1]; mutant IDH1): competitive inhibitor

IC50 for enzyme activities, WT [2]: n.p
Compound: COc1ccc(-c2ccc3cc(C(=O)O)ccc3c2)cc1C12CC3CC(CC(C3)C1)C2 [Adapalene]

IC50 [2]: > 200 µM
Compound: CO[C@@]1(NC(=O)Cc2cccs2)C(=O)N2C(C(=O)O)=C(COC(N)=O)CS[C@@H]21 [Cefoxitin sodium]

IC50 for enzyme activities, WT [2]: n.p
Compound: OC(Cn1cncn1)(Cn1cncn1)c1ccc(F)cc1F [Fluconazole]

IC50 for enzyme activities, WT [2]: n.p
Compound: CCCNCC(O)COc1ccccc1C(=O)CCc1ccccc1 (centres unmarked) [Propafenone Hydrochloride]

IC50 for enzyme activities, WT [2]: n.p
Compound: CN(C)c1cc(NC(=O)CNC(C)(C)C)c(O)c2c1C[C@H]1C[C@H]3[C@H](N(C)C)C(O)=C(C(N)=O)C(=O)[C@@]3(O)C(O)=C1C2=O [Tigecycline]
